Assay results: patent US8163940B2, “Method for preparation of amorphous, anhydrous crystalline or hydrated crystalline docetaxel” (Samyang Genex Corporation, priority 2006, dated 2012)
Where “and” joins values, the source holds several entries; their conditions need not be identical. Equal values may be shown once.

Test: Stability of docetaxel dissolved and left standing in alcohols at 50° C. (HPLC purity and degradation degree)
Type: physicochemical
Settings: dissolution and standing at 50° C.
Experimental: The purity and recovery rate of docetaxel in the present specification were calculated by quantity analysis using HPLC under the conditions of Table 2.
To evaluate the stability of docetaxel in the case that hydrated crystalline docetaxel is prepared by dissolution in alcohols at a high temperature, methanol and ethanol were each used as an organic solvent and dissolution temperature and standing temperature were 50° C., and change in purity of docetaxel and degradation degree were measured after letting it stand for 0, 1, 5, 10, and 24 hours.

7-epi-docetaxel Amounts Produced (EtOH, 0 hr): 0 area %
Change in Purity of Docetaxel (EtOH, 0 hr): 99.7480%
7-epi-docetaxel Amounts Produced (EtOH, 1 hr): 0.4494 area %
Change in Purity of Docetaxel (EtOH, 1 hr): 99.2959%
7-epi-docetaxel Amounts Produced (EtOH, 5 hr): 1.8948 area %
Change in Purity of Docetaxel (EtOH, 5 hr): 97.8546%
7-epi-docetaxel Amounts Produced (EtOH, 10 hr): 2.9451 area %
Change in Purity of Docetaxel (EtOH, 10 hr): 96.8045%
7-epi-docetaxel Amounts Produced (EtOH, 24 hr): 4.5544 area %
Change in Purity of Docetaxel (EtOH, 24 hr): 95.1952%
7-epi-docetaxel Amounts Produced (MeOH, 0 hr): 0 area %
Change in Purity of Docetaxel (MeOH, 0 hr): 99.7469%
7-epi-docetaxel Amounts Produced (MeOH, 1 hr): 4.0163 area %
Change in Purity of Docetaxel (MeOH, 1 hr): 95.7% and 95.7399%
7-epi-docetaxel Amounts Produced (MeOH, 5 hr): 17.2282 area %
Change in Purity of Docetaxel (MeOH, 5 hr): 81.8743%
7-epi-docetaxel Amounts Produced (MeOH, 10 hr): 28.4728 area %
Change in Purity of Docetaxel (MeOH, 10 hr): 69.3707%
7-epi-docetaxel Amounts Produced (MeOH, 24 hr): 41.5352 area %
Change in Purity of Docetaxel (MeOH, 24 hr): 50.7338%
Compound: CC(=O)O[C@@]12CO[C@@H]1C[C@H](O)[C@@]1(C)C(=O)[C@H](O)C3=C(C)[C@@H](OC(=O)[C@H](O)[C@@H](NC(=O)OC(C)(C)C)c4ccccc4)C[C@@](O)([C@@H](OC(=O)c4ccccc4)[C@H]21)C3(C)C [docetaxel]
